Data reported in PubChem BioAssay AID1259407 (Chemical Carcinogenesis Research Information System (CCRIS), 2018).
The source made the active and inactive calls. How the calls were made is not given here.

Test system: CCRIS mutagenicity, Ames/micronucleus/aberration tests
Assay: CCRIS mutagenicity studies
[1] = Test System: AMES SALMONELLA TYPHIMURIUM, Strain/Indicator: TA1535, Metabolic Activation: NONE, Method: STANDARD PLATE
[2] = Test System: AMES SALMONELLA TYPHIMURIUM, Strain/Indicator: TA98, Metabolic Activation: NONE, Method: PREINCUBATION
[3] = Test System: AMES SALMONELLA TYPHIMURIUM, Strain/Indicator: TA100, Metabolic Activation: NONE, Method: PREINCUBATION
[4] = Test System: AMES SALMONELLA TYPHIMURIUM, Strain/Indicator: TA102, Metabolic Activation: NONE, Method: PREINCUBATION

O=C1c2ccccc2-c2ccccc21
mutagenic call (Test System: AMES SALMONELLA TYPHIMURIUM, Strain/Indicator: TA98, Metabolic Activation: HAMSTER, LIVER, S-9, AROCLOR 1254, Method: STANDARD PLATE): inactive; negative | mutagenic call (Test System: AMES SALMONELLA TYPHIMURIUM, Strain/Indicator: TA98, Metabolic Activation: NONE, Method: STANDARD PLATE): inactive; negative | mutagenic call (Test System: AMES SALMONELLA TYPHIMURIUM, Strain/Indicator: TA98, Metabolic Activation: RAT, LIVER, S-9, AROCLOR 1254, Method: STANDARD PLATE): inactive; negative | mutagenic call (Test System: AMES SALMONELLA TYPHIMURIUM, Strain/Indicator: TA100, Metabolic Activation: HAMSTER, LIVER, S-9, AROCLOR 1254, Method: STANDARD PLATE): inactive; negative | mutagenic call (Test System: AMES SALMONELLA TYPHIMURIUM, Strain/Indicator: TA100, Metabolic Activation: NONE, Method: STANDARD PLATE): inactive; negative | mutagenic call (Test System: AMES SALMONELLA TYPHIMURIUM, Strain/Indicator: TA100, Metabolic Activation: RAT, LIVER, S-9, AROCLOR 1254, Method: STANDARD PLATE): inactive; negative | mutagenic call (Test System: AMES SALMONELLA TYPHIMURIUM, Strain/Indicator: TA1535, Metabolic Activation: HAMSTER, LIVER, S-9, AROCLOR 1254, Method: STANDARD PLATE): inactive; negative | mutagenic call [1]: inactive; negative | mutagenic call (Test System: AMES SALMONELLA TYPHIMURIUM, Strain/Indicator: TA1535, Metabolic Activation: RAT, LIVER, S-9, AROCLOR 1254, Method: STANDARD PLATE): inactive; negative | mutagenic call (Test System: AMES SALMONELLA TYPHIMURIUM, Strain/Indicator: TA1537, Metabolic Activation: HAMSTER, LIVER, S-9, AROCLOR 1254, Method: STANDARD PLATE): inactive; negative | mutagenic call (Test System: AMES SALMONELLA TYPHIMURIUM, Strain/Indicator: TA1537, Metabolic Activation: NONE, Method: STANDARD PLATE): inactive; negative | mutagenic call (Test System: AMES SALMONELLA TYPHIMURIUM, Strain/Indicator: TA1537, Metabolic Activation: RAT, LIVER, S-9, AROCLOR 1254, Method: STANDARD PLATE): inactive; negative | mutagenic call (Test System: MOUSE LYMPHOMA, Strain/Indicator: L5178Y (TK+/TK-), Metabolic Activation: NONE, Method: SUSPENSION/PLATE): inactive; negative. reevaluation of results: inconclusive | mutagenic call (Test System: MOUSE LYMPHOMA, Strain/Indicator: L5178Y (TK+/TK-), Metabolic Activation: RAT, LIVER, S-9, AROCLOR 1254, Method: SUSPENSION/PLATE): inactive; negative. reevaluation of results: negative

Nc1nnc(/C(=C/c2ccc([N+](=O)[O-])o2)c2ccco2)o1
mutagenic call (Test System: UDS HUMAN FIBROBLASTS, Strain/Indicator: THY INCORP (NON-S-PHASE), Metabolic Activation: NONE, Method: AUTORADIOGRAPHY): active; positive

Cc1cc2c(C)c3ccccc3nc2c2ccccc12
mutagenic call (Test System: AMES SALMONELLA TYPHIMURIUM, Strain/Indicator: TA97A, Metabolic Activation: NONE, Method: PREINCUBATION): active; positive | mutagenic call [2]: inactive; negative | mutagenic call [3]: active; positive | mutagenic call [4]: active; positive

COC(=O)c1ccccc1N
mutagenic call (Test System: AMES SALMONELLA TYPHIMURIUM, Strain/Indicator: TA97, Metabolic Activation: NONE, Method: PREINCUBATION): inactive; negative | mutagenic call (Test System: AMES SALMONELLA TYPHIMURIUM, Strain/Indicator: TA97, Metabolic Activation: RAT, LIVER, S-9, AROCLOR 1254, Method: PREINCUBATION): inactive; negative | mutagenic call [2]: inactive; negative | mutagenic call (Test System: AMES SALMONELLA TYPHIMURIUM, Strain/Indicator: TA98, Metabolic Activation: S-9, Method: PREINCUBATION): inactive; negative | mutagenic call [3]: inactive; negative | mutagenic call (Test System: AMES SALMONELLA TYPHIMURIUM, Strain/Indicator: TA100, Metabolic Activation: S-9, Method: PREINCUBATION): inactive; negative | mutagenic call [4]: inactive; negative | mutagenic call (Test System: AMES SALMONELLA TYPHIMURIUM, Strain/Indicator: TA102, Metabolic Activation: RAT, LIVER, S-9, AROCLOR 1254, Method: PREINCUBATION): inactive; negative | mutagenic call (Test System: UDS RODENT HEPATOCYTES, Strain/Indicator: THY INCORP (NON-S-PHASE), Metabolic Activation: NONE, Method: AUTORADIOGRAPHY): inactive; negative

NC(=O)CNC(=O)N(CCCl)N=O
mutagenic call [1]: active; positive
